Here are results for 13 molecules from ChEMBL document CHEMBL5241099, “Targeting mutated GTPase KRAS in tumor therapies” (Eur J Med Chem, 2021).

A short description of experiment [1]: Inhibition of SOS1/KRAS (unknown origin) protein-protein interaction. Set-up: species or system Homo sapiens.
The target of experiment [2] is GTPase KRas (Homo sapiens, UniProt P01116, G12V). The experiment can be described thus: Binding affinity to GppNHp-tagged KRAS G12V mutant (unknown origin).
The subject of experiment [3] is GTPase KRas (Homo sapiens), P01116 [G12C]. The experiment can be described thus: Binding affinity to KRAS G12C mutant (unknown origin) assessed as covalent bond formation by measuring Kobs/[I] ratio.
In experiment [4] the target is GTPase KRas (Homo sapiens, UniProt P01116, G12C). The experiment can be described thus: Inhibition of KRAS G12C mutant in human NCI-H358 cells incubated for 6 hrs by LC-MS/MS analysis. The format is cell-based.
A further experiment relates to NIH3T3. Briefly: Antiproliferative activity against mouse NIH3T3 cells transfected with HRAS G12V mutant assessed as inhibition of cell growth incubated for 14 days by dissecting microscope based colony counting assay. The format is functional. Conditions: NIH3T3, 336 h.
The target in the next experiment is GTPase HRas (Homo sapiens, UniProt P01112). Briefly: Inhibition of GST-tagged HRAS (1 to 166 residues) (unknown origin) assessed as inhibition of mSOS1 mediated nucleotide exchange by [35S]GTPgammaS based liquid scintillation counting method.
The test system of another experiment is HT-1080. The experiment can be described thus: Cytotoxicity against human HT-1080 cells harboring NRAS Q61K mutant assessed as inhibition of cell growth incubated for 72 hrs by celltiter-glo luminescent cell viability assay. The class given is functional, cell-based. Conditions: HT-1080, 72 h. For orientation: ATP-based viability assays read luminescence as a measure of living cells.

Experiment [5] is described as follows: Inhibition of Ras GTPase activation in HEK293T cells. The format is cell-based, Homo sapiens.
The test system of the next experiment is SW480. The experiment can be described thus: Antitumor activity against human SW480 cells xenografted in athymic nude mouse assessed as inhibition of tumor growth at 80 mg/kg, po administered 5 days a week for 17 to 20 days relative to control. The class given is functional. The conditions noted are these: time 17-20 day. Background: Xenograft models place foreign cells or tissue in a host animal.

A short description of experiment [6]: Inhibition of ERK phosphorylation in human MIA PaCa-2 cells. The class given is cell-based.
The nature of experiment [7]: Inhibition of ERK phosphorylation in human NCI-H358 cells. The format is cell-based.

Molecules are shown by their SMILES.

For orientation: IC50 means the concentration that inhibits the measured activity by half. Molecule `COc1cc2nc(C)nc(N[C@H](C)c3cc(N)cc(C(F)(F)F)c3)c2cc1O[C@H]1CCOC1` gave a 50% inhibitory concentration (IC50) in [1] of 0.005 µM.

In general, Kd refers to the constant that tells how readily two partners part at equilibrium. As for `O=C(NCC1COc2ccccc2O1)c1ccco1` (stereo unspecified), on GTPase KRas [2], binding was put at a Kd of 235 µM.

In the case of `C=CC(=O)N1CC(NC(=O)Cn2cc(C(=O)N3CCc4c(cccc4OC)C3)c3cc(Br)ccc32)C1`, in experiment [3], the Ratio is 230 M⁻¹ s⁻¹.

At GTPase KRas [4], `C=CC(=O)N1CCN(C(=O)CNc2cc(I)c(Cl)cc2O)CC1` yielded an IC50 of 100 µM. As to `O=[N+]([O-])c1cc(C(F)(F)F)cc([N+](=O)[O-])c1NNC(=S)Nc1ccc(F)cc1`, the values for the 50% inhibitory concentration (IC50) in the experiment with NIH3T3 and on GTPase HRas were 1.4 µM and 100 µM, respectively. `COc1nc(-c2cccc3c2OCCO3)ccc1Nc1ccc(CN(C)C)cc1`: in the experiment with HT-1080, the IC50 came out at 10 µM.

As usually defined, the EC50 is the midpoint of the concentration-response curve. A lower EC50 goes with a more potent agent. Take `Cc1[nH]c2cc(Cl)cc(Cl)c2c1CCN`: in experiment [5], a half-maximal response (EC50) required 15.8 µM. In turn, `COc1cc2ncnc(N[C@H](C)c3ccccc3)c2cc1OC` had an IC50 in [1] of 1.6 µM. Usually inhibition in vivo stands for the change of the read-out against control, counted positive when it falls. In the case of `Cc1ccc(NC(=S)NNc2c([N+](=O)[O-])cc(C(F)(F)F)cc2[N+](=O)[O-])cc1Cl`, the inhibition in vivo at 80 mg/kg in the experiment with SW480 came to 40%. In addition, the values for the half-inhibitory concentration (IC50) in the experiment on NIH3T3 and at GTPase HRas were 0.5 µM and 20 µM, respectively. `C=CC(=O)N1CCN(c2nc(=O)n(-c3c(C)ccnc3C(C)C)c3nc(-c4c(O)cccc4F)c(F)cc23)[C@@H](C)C1` [SOTORASIB] showed an IC50 in experiment [6] of 0.068 µM. On to `C=CC(=O)N1CC(N2CCN(C(=O)CNc3cc(Cl)c(Cl)cc3O)CC2)C1`, for which the midpoint of inhibition at GTPase KRas [4], the IC50, lay at 50 µM. As to `C=CC(=O)N1CC(NC(=O)COc2ccc(Br)cc2NC(=O)c2cc(C)no2)C1`, in experiment [3], the Ratio came out at 2 M⁻¹ s⁻¹. `C=CC(=O)N1CCN(c2ncnc3c2CCN(c2cc(O)cc4ccccc24)C3)CC1` showed a half-maximal inhibitory concentration (IC50) in [7] of 7.6 µM.
